Reference: US20250099426A1, “Indolium Compounds for Treating Cancer” (Emory University, priority 2022, published 2025)
“Also recorded” adds a separate entry of the source.

Tests used:
[1] = tested on: Nkx3.2; experiment: Immunohistochemistry of in vivo LM36R tumor model, Nkx3.2; parameters: species or system mice; conditions: treated LM36R tumor versus control
Description: (§1) Tumor samples were resected and embedded in formalin, processed, and stained. Formalin-fixed and paraffin-embedded tissue sections from each group were cut to a 5-μm thickness and air-dried. Processing was performed using Ventana DISCOVERY™ Ultra automated immunohistochemistry stainer. Slides were deparaffinized with EZ-Prep (#05279771001) and then were antigen retrieved for 64 minutes with CC1 reagent (#950-500). Rabbit anti-Eph receptor A3 (EphA3) antibody (ab126261) diluted at 1:50, Rabbit anti-Nkx3.2 (#PA5-21108 diluted at 1:500) and mouse anti-Rbl antibody (554136) diluted at 1:100 were applied and incubated for 40 minutes. For the first two stains, DISCOVERY™ OmniMap anti-Rb HRP was applied and incubated for 12 minutes, and the detection was completed in combination with DISCOVERY™ ChromoMap DAB kit for anti-EphA3 antibody and DISCOVERY™ Red kit for anti-Nkx3.2 anti-body, as per manufacturer recommendations. For the Rbl stain, DISCOVERY™ OmniMap anti-mouse HRP was applied and incubated for 12 minutes, and the detection was completed in combination with DISCOVERY™ ChromoMap DAB kit. Slides were counterstained with hematoxylin for 8 minutes. Slides were then dehydrated, cover-slipped, and evaluated by light microscopy. Whole imaging was performed.

[2] = tested on: Rb; experiment: Immunohistochemistry of in vivo LM36R tumor model, Rb; parameters: species or system mice; conditions: treated LM36R tumor tissue versus control tissue
Description: as §1

[3] = tested on: LM36R cells; experiment: Proliferation assay / cell viability (AlamarBlue); assay type: cell-based; conditions: Indolium 1 1 μM, 24 hours
Description: Lanes: 1) Control 2) Indolium 1 (1 μM) 3) MEK Inhibitor U0126 (10 μM) 4) Akt Inhibitor II (10 μM) 5) Indolium 1 (1 μM)+MEK Inhibitor U0126 (10 μM) 6) Indolium 1+Akt Inhibitor II (10 μM). *=Statistically lower cell viability compared to control (p<0.05). **=Statistically lower cell viability compared to control and statistically higher cell viability than Indolium 1 treatment (lane 2) alone. Inhibition of MAPK and Akt reverses cell death caused by Indolium 1.
The induction of MAPK and Akt seem to contribute to reduction in tumor size observed in mice treated with Indolium 1. In a cell viability assay, cells were treated with Indolium 1, MEK inhibitor (inhibiting the MAPK signaling pathway directly upstream of MAPK), and Akt inhibitor. Cells were also treated with a combination of Indolium 1 and each inhibitor. […]
A cell proliferation assay was used to study the effect of Indolium 1 in vitro. […] After 4 hours, the plate was read following manufacturer's instructions and the data was processed using Softmax™ Pro software (Molecular Devices). An unpaired two-tailed Student's t-test was performed to determine the significant difference between the control and each treatment group, along with between the Indolium 1 only versus Indolium 1 plus MEK/Akt inhibitor, with significance determined at p<0.05.

[4] = tested on: pAkt; experiment: Western blotting of treated LM36R cells, pAkt; assay type: cell-based; conditions: 0.1-5 μM Indolium 1, 24 hours
Description: (§2) LM36R cells were grown in six T75 flasks. Upon reaching 70% confluence, cell media was replaced with media with concentrations of 0, 0.1, 0.5, 1, 2.5, and 5 μM Indolium 1. After 24 hours, cells were lysed in RIPA buffer (25 mM Tris-HCl, 150 mM NaCl, 1% NP-40, 1% sodium deoxycholate, 0.1% sodium dodecyl sulfate, pH 7.6) supplemented with HALT™ protease phosphatase inhibitor cocktails and 0.5 M EDTA solution. Cell lysates incubated on ice for 30 minutes, and then centrifuged at 16,000×g at 4° C. for 20 minutes. Protein concentration was determined using the Pierce BCA Protein Assay Kit™ and then normalized. NuPage™ LDS Sample Buffer (4×) and beta-mercaptoethanol were added to the samples, which were subsequently boiled. Sample protein (40 μg) of were loaded into each well of NuPAGE™ 4-12% Bis-Tris precast gels in MOPS buffer against Precision Plus™ Protein Dual Color Standards. Proteins were transferred onto polyvinylidene difluoride membrane using Transblot Turbo™ system. Membrane was blocked for 1 hour at room temperature in 5% non-fat dry milk in 0.1% Tween-Tris-Buffered Saline and probed with Rb (#PA5-27215) pMAPK (9101S), pAkt (#4060S), and beta-tubulin (#2146S) antibodies at 1:1000 dilutions in 5% bovine serum albumin at 4° C. overnight. […] Antibody signal was detected using SuperSignal™ West Pico chemiluminescence substrate with Medical X-Ray Film and digitally scanned.

[5] = tested on: LM36R, a vemurafenib-resistant melanoma cell line; experiment: In vivo LM36R xenograft model, tumor volume; parameters: species or system athymic Nu/Nu nude male mice; conditions: LM36R 1×10^6 cells/mouse, IP three times a week, 3 mg/kg/week, 4 weeks, N=5/group, p-value=0.03 at week 4
Description: Mice were inoculated with LM36R, a vemurafenib-resistant melanoma cell line, at 1×10^6 cells/mouse. Mice were then treated with Indolium via IP administration three times a week at a concentration of 3 mg/kg/week. Tumor growth was compared to control vehicle (sterile water). […] (N=5/group, p-value=0.03) at week 4.
In order to investigate Indolium 1 activity against LM36R, vemurafenib-resistant melanoma cell line, in vivo, 10 mice were inoculated at 1×10^6 cells/mouse. Mice were then treated with indolium 1 via IP administration three times a week at a concentration of 3 mg/kg/week. […] (FIG. 2).
The xenograft model was developed. A LM36R cell suspension in growth medium was inoculated at 1×10^6 cells/mouse in the right flank of athymic Nu/Nu nude male mice (n=5 per group). MPIB was prepared by dissolving 3.75 mg into 1 mL of ethanol 7. This solution (100 μL) was then diluted to the final concentration in 1 mL of 20% soy-fat Intralipid™ prior to each injection and vortexed vigorously. […] MPIB treatment was initiated on the second day after the tumor cell injection, and the tumor volume as well as the weight of the animals were recorded weekly thereafter. Animals were sacrificed and tumors were harvested after tumor volumes reached experimental endpoint as determined by IACUC protocol.

[6] = tested on: EphA3; experiment: Immunohistochemistry of in vivo LM36R tumor model, EphA3; parameters: species or system mice; conditions: treated LM36R tumor tissue versus controls
Description: as §1

[7] = tested on: pMAPK; experiment: Western blotting of treated LM36R cells, pMAPK; assay type: cell-based; conditions: 0.1-5 μM Indolium 1, 24 hours
Description: as §2

[8] = tested on: Rb; experiment: Western blotting of treated LM36R cells, Rb; assay type: cell-based; conditions: 0.1-5 μM Indolium 1, 24 hours
Description: as §2

[9] = tested on: EphA3; experiment: ATAC-seq of LM36R tumors, chromatin accessibility; assay type: in vivo; conditions: treated versus vehicle LM36R tumors in mice
Description: To gain insights into the mechanisms by which Indolium 1 caused decrease in LM36R tumor volume, we analyzed possible changes in chromatin structure in the tumor cells using ATAC-seq. […] To further explore the effects that Indolium 1 has on cells which could have led to tumor size reduction, LM36R cells were treated with varying concentrations of Indolium 1. […] Beta-tubulin was used to confirm even protein concentrations in each sample.
Experiments reported herein indicate that small molecule, Indolium 1 has activity against vemurafenib resistant BRAF mutant melanoma. Vehicle versus Indolium treated tumors in mice were analyzed for potential biomarkers and for insight into the mechanism of Indolium 1 in vivo. […] EphA3 is a receptor tyrosine kinase which binds ligands ephrinA5 and […]. […] First, inactivating mutations in EphA3 are often found in high grade malignancies. Second, activation of wild type EphA3 causes downregulation of Akt, which has previously been implicated in melanoma progression. […] Finally, a novel antibody based therapeutic directed against EphA3, and therapies that induce EphA3 could sensitize melanoma to anit-EphA3 antibodies.

[10] = parameters: species or system mice; conditions: mouse, in vivo
Description: The ability to inhibit the growth of vemurafenib resistant melanoma in vivo is unique.
The xenograft model was developed. A LM36R cell suspension in growth medium was inoculated at 1×10^6 cells/mouse in the right flank of athymic Nu/Nu nude male mice (n=5 per group). MPIB was prepared by dissolving 3.75 mg into 1 mL of ethanol 7. This solution (100 μL) was then diluted to the final concentration in 1 mL of 20% soy-fat Intralipid™ prior to each injection and vortexed vigorously. Vehicle control (ethanol in Intralipid) or MPIB was administered intraperitoneally three times a week at 3 mg/kg/week. MPIB treatment was initiated on the second day after the tumor cell injection, and the tumor volume as well as the weight of the animals were recorded weekly thereafter. Animals were sacrificed and tumors were harvested after tumor volumes reached experimental endpoint as determined by IACUC protocol.

Question: What does the source list for “3-(bis(4-(diethylamino)phenyl) methylene)-1-methyl-2-phenyl-3H-indol-1-ium [Indolium 1]”?
Answer: Nkx3.2 immunohistochemical staining [1]: upregulated Nkx3.2 expression; Rb immunohistochemical staining [2]: less Rb compared with control tissue; relative cell viability [3]: cell death; pAkt levels (Western blot) [4]: induction; tumor volume versus control [5]: potent in vivo activity against LM36R; also recorded: significant reduction of tumor volume; also recorded: reduced tumor volume over 4 weeks; EphA3 immunohistochemical staining [6]: more positivity for EPHA3 compared to controls; pMAPK levels (Western blot) [7]: induction of phosphorylated MAP kinase; levels of Rb (Western blot) [8]: decreased with increasing concentrations; EphA3 chromatin accessibility (ATAC-seq) [9]: one of the most upregulated genes in terms of chromatin accessibility; tolerability [10]: well tolerated
